Tests used:
[1] = pH-potentiometric titration, stability constants (logβ) of ML complexes; format: physicochemical; conditions: [(η^5-Cp*)Rh]^2+; 0.20 M KCl, 25.0°C
Description: […]. […] Comparing the two metal ion containing systems, the complexation with [(η^6-p-cym)Ru]^2+, starts at a more acidic pH, but hydrolytic processes occur already in the physiological pH range due to the higher affinity of the metal ion to hydrolysis. For the [(η^5-Cp*)Rh]^2+, these processes are shifted towards higher pH; […].
For solution studies, doubly deionized and ultra-filtered water was obtained from a Milli-Q RG (Millipore) water purification system. pH-potentiometric measurements were carried out at a constant ionic strength of 0.20 M KCl and at 25.0°C. Carbonate-free KOH solutions of known concentrations (ca. 0.2 M) were used as titrant. […]. A Mettler Toledo DL50 titrator equipped with a DG114-SC combined glass electrode was used for the pH-potentiometric measurements. […] The titrations were performed in the pH range of 2.0–11.0 in equilibrium-controlled mode, during which the pH equilibrium was assumed to be reached if a change in the measured potential was less than 0.1 mV within 90 s. […] The protonation constants of the ligands and the overall stability constants of the complexes, βp,q,r = [MpHqLr]/[M]^p[H]^q[L]^r (where “M” stands for [(η^5-Cp*)Rh(H2O)3]^2+ and “L” represents the completely deprotonated form of the ligand), were calculated with the aid of the SUPERQUAD ([Gans et al., 1985]) and PSEQUAD ([Zékány and Nagypál, 1985]) computer programs, respectively. […]

[2] = pH-potentiometric titration, protonation constants (pKa) of the ligands; format: physicochemical; conditions: 0.20 M KCl, 25.0°C; N-heterocyclic ring of the ligand
Description: In order to obtain information on the acidbase character of the ligands and on the stoichiometry and stability of the complexes present in aqueous medium, potentiometric titrations were carried out in selected systems. Based on the results, both 3a and 3b, having good enough solubility in water, are capable of releasing one hydrogen ion from the fully protonated forms in the measurable pH range (see Figure 3, “pK”). The calculated pK a values appear in Table 4; these values belong to the N-heterocyclic ring of the ligands. […]. For comparison, the previously prepared β-anomeric pair of 3a, compound 3a-β ([Kacsir et al., 2021]) in Table 4, was also studied.
For solution studies, doubly deionized and ultra-filtered water was obtained from a Milli-Q RG (Millipore) water purification system. pH-potentiometric measurements were carried out at a constant ionic strength of 0.20 M KCl and at 25.0°C. Carbonate-free KOH solutions of known concentrations (ca. 0.2 M) were used as titrant. […]. A Mettler Toledo DL50 titrator equipped with a DG114-SC combined glass electrode was used for the pH-potentiometric measurements. […] The titrations were performed in the pH range of 2.0–11.0 in equilibrium-controlled mode, during which the pH equilibrium was assumed to be reached if a change in the measured potential was less than 0.1 mV within 90 s. […]

logβ [ML] [1]: 5.50 (4)
pK a [2]: 3.59 (1)
SMILES: OC[C@H]1O[C@H](n2cc(-c3ccccn3)nn2)[C@H](O)[C@@H](O)[C@@H]1O [Complex 3a, 1-(α-D-Glucopyranosyl)-4-(pyridin-2-yl)-1,2,3-triazole]

From paper PMC12434071, “Platinum-group metal half-sandwich complexes of 1-(α-D-glucopyranosyl)-4-hetaryl-1,2,3-triazoles: synthesis, solution equilibrium studies, and investigation of their anticancer and antimicrobial activities” (Frontiers in Chemistry, 2025)
